Test results published in PubChem BioAssay (NCI).
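Briefly, cells in 96-well plates were exposed to five compound concentrations for 48 h, and endpoints were estimated by linear interpolation. GI50 is the concentration that inhibits growth by half. Definition used: TGI = concentration required for complete inhibition of growth.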

Key:
Experiment in all cases: inhibition of tumour cell growth, NCI panel, 48 h
[1] = test system: SK-MEL-2 melanoma
[2] = test system: HT29 colon
[3] = test system: NCI-H522 lung
[4] = test system: T-47D breast
[5] = test system: NCI-H460 lung
[6] = test system: A549 NSCLC
[7] = test system: K-562 leukemia
[8] = test system: TK-10 renal
[9] = test system: U251 CNS
[10] = test system: SF-539 CNS

CCCC[P+](c1ccccc1)(c1ccccc1)c1ccccc1 was tested, and the GI50 [1] was 3.42 µM, the TGI [1] was 19.6 µM and the GI50 [2] was 3.03 µM. The TGI [2] was over 100 µM, the GI50 [3] was 1220 nM and the TGI [3] was 6.85 µM. It also gave a GI50 [4] of 0.628 µM, a TGI [4] of over 100 µM and a GI50 [5] of 1960 nM. For the same compound, the TGI [5] was 24.7 µM, the GI50 [6] was 4.4 µM and the TGI [6] was over 100 µM. It also gave a GI50 [7] of 577 nM, a TGI [7] of over 100 µM and a GI50 [8] of 8.29 µM. For the same compound, the TGI [8] was over 100 µM, the GI50 [9] was 2340 nM and the TGI [9] was over 100 µM. For the same compound, the GI50 [10] was 7090 nM and the TGI [10] was over 100 µM.
Work on CC(F)(F)c1cc(F)ccc1-c1sc2cc(O)ccc2c1Oc1ccc(/C=C/C(=O)O)cc1 yielded a GI50 [1] of 4.43 µM, a TGI [1] of 20.8 µM and a GI50 [2] of 11.8 µM. For the same compound, the TGI [2] was 36.1 µM, the GI50 [3] was 6230 nM and the TGI [3] was 29 µM. For the same compound, the GI50 [4] was 7.1 µM, the TGI [4] was 50 µM and the GI50 [5] was 8180 nM. It also gave a TGI [5] of 23.5 µM, a GI50 [6] of 10.3 µM and a TGI [6] of 29.9 µM. It also gave a GI50 [7] of 6700 nM, a TGI [7] of 79.2 µM and a GI50 [8] of 22 µM. The TGI [8] was over 100 µM, the GI50 [9] was 6450 nM and the TGI [9] was 23 µM. For the same compound, the GI50 [10] was 5950 nM and the TGI [10] was 21 µM.
In the case of CN(C)CCOc1nc2c3cccnc3cc(-c3cccc(Cl)c3)c2c2ncccc12, the GI50 [1] is reported as 1.9 µM, the TGI [1] is reported as 3.79 µM and the GI50 [2] is reported as 1.01 µM. It also gave a TGI [2] of 2.27 µM, a GI50 [3] of 1470 nM and a TGI [3] of 3.06 µM. For the same compound, the GI50 [4] was 2.16 µM, the TGI [4] was 6.39 µM and the GI50 [5] was 836 nM. It also gave a TGI [5] of 2.24 µM, a GI50 [6] of 1.39 µM and a TGI [6] of 2.98 µM. For the same compound, the GI50 [7] was 1130 nM, the TGI [7] was 2.74 µM and the GI50 [8] was 1.52 µM. For the same compound, the TGI [8] was 4.04 µM, the GI50 [9] was 1560 nM and the TGI [9] was 3.03 µM. The GI50 [10] was 1650 nM and the TGI [10] was 3.08 µM.
In the case of CS(=O)(=O)OCCN(CCOS(C)(=O)=O)c1ccc(C=Nc2ccc3oc(=O)ccc3c2)cc1, the TGI [1] is reported as 37.7 µM, the TGI [2] is reported as 53.6 µM and the TGI [3] is reported as 0.828 µM. The TGI [4] was 72.8 µM, the TGI [5] was 5.38 µM and the TGI [6] was 35.3 µM. The TGI [7] was over 100 µM, the TGI [8] was 9.22 µM and the TGI [9] was 41.9 µM. For the same compound, the TGI [10] was 35.3 µM.
For COC(=O)[C@@H](Cc1c[nH]c2ccccc12)NC(=O)/C=C/c1ccccc1, the GI50 [1] was 6.63 µM, the TGI [1] was over 100 µM and the GI50 [2] was 3.9 µM. For the same compound, the TGI [2] was 14.1 µM, the GI50 [3] was 1810 nM and the TGI [3] was 30.5 µM. The GI50 [4] was 8.41 µM, the TGI [4] was over 100 µM and the GI50 [5] was 3260 nM. For the same compound, the TGI [5] was 15.1 µM, the GI50 [6] was 3.91 µM and the TGI [6] was over 100 µM. It also gave a GI50 [7] of 2740 nM, a TGI [7] of over 100 µM and a GI50 [8] of 17.9 µM. The TGI [8] was over 100 µM, the GI50 [9] was 3160 nM and the TGI [9] was 41.6 µM. The GI50 [10] was 1950 nM and the TGI [10] was 5.29 µM.
Compound CCn1c(-c2nonc2N)nc2c(C#CC(C)(C)O)nc(O[C@@H](CN)c3ccccc3)cc21 has a GI50 [1] of 0.188 µM, a TGI [1] of 0.737 µM and a GI50 [2] of 0.119 µM. The TGI [2] was 0.735 µM, the GI50 [3] was 91.9 nM and the TGI [3] was 0.353 µM. The GI50 [4] was 0.016 µM, the TGI [4] was 2.34 µM and the GI50 [5] was 62.1 nM. The TGI [5] was 1.06 µM, the GI50 [6] was 0.108 µM and the TGI [6] was 3.7 µM. It also gave a GI50 [7] of 122 nM, a TGI [7] of 4.26 µM and a GI50 [8] of 0.164 µM. It also gave a TGI [8] of 1.66 µM, a GI50 [9] of 45.5 nM and a TGI [9] of 1.15 µM. It also gave a GI50 [10] of 116 nM and a TGI [10] of 0.874 µM.
CC(C)=CCC/C(C)=C/CC/C(=C/COP(=O)(OCc1ccc([N+](=O)[O-])o1)N(C)CCCCCl)CC=C(C)C (stereo not given) showed a GI50 [1] of 3.09 µM, a TGI [1] of 14.1 µM and a GI50 [2] of 4.56 µM. The TGI [2] was 33.6 µM, the GI50 [3] was 2040 nM and the TGI [3] was 7.47 µM. For the same compound, the GI50 [4] was 38 µM, the TGI [4] was over 100 µM and the GI50 [5] was 3750 nM. The TGI [5] was 11.8 µM, the GI50 [6] was 8.66 µM and the TGI [6] was 24.2 µM. For the same compound, the GI50 [7] was 9450 nM, the TGI [7] was over 100 µM and the GI50 [8] was 14.6 µM. For the same compound, the TGI [8] was 30.8 µM, the GI50 [9] was 2780 nM and the TGI [9] was 11.8 µM. It also gave a GI50 [10] of 3520 nM and a TGI [10] of 11.9 µM.
